Data published in US4820694A, “Modifications of 3-O-demethylmycinose in macrocin and lactenocin” (priority 1986, dated 1989).
Values after ≈ are worked out from the molar mass of the structure shown. Read-outs that look alike come from different tables or passages of the source.

Tests used:
Format in all cases: cell-based
[1] = test system: Bordetella bronchiseptica; assay: broth-dilution microtiter MIC test; conditions: Bordetella bronchiseptica; broth-dilution microtiter; read-out: MIC
Method: (§1) The MIC's in Table III were determined by standard agar-dilution assays. The MIC's in Table IV were obtained using conventional brothdilution microtiter tests.

[2] = test system: Mycoplasma gallisepticum 15E; assay: broth-dilution microtiter MIC test; conditions: Mycoplasmoides gallisepticum, 15E
Method: as §1

[3] = test system: Mycoplasma gallisepticum 36H; assay: broth-dilution microtiter MIC test; conditions: Mycoplasmoides gallisepticum, 36H
Method: as §1

Streptococcus sp. 19F = assay: broth-dilution microtiter MIC test; conditions: Streptococcus, SP.19F
Method: as §1

Mycoplasma synoviae 40A = assay: broth-dilution microtiter MIC test; conditions: Mycoplasmopsis synoviae, 40A
Method: as §1

[4] = test system: Mycoplasma gallisepticum 29C; assay: broth-dilution microtiter MIC test; conditions: Mycoplasmoides gallisepticum, 29C
Method: as §1

[5] = test system: Pasteurella multocida 40G; assay: broth-dilution microtiter MIC test; conditions: Pasteurella multocida, 40G
Method: as §1

[6] = test system: Pasteurella multocida 17E; assay: broth-dilution microtiter MIC test; conditions: Pasteurella multocida, 17E
Method: as §1

Mycoplasma hyorhinis 29E = assay: broth-dilution microtiter MIC test; conditions: Mycoplasma, 29E
Method: as §1

[7] = test system: Pasteurella multocida 22A; assay: broth-dilution microtiter MIC test; conditions: Pasteurella multocida, 22A
Method: as §1

[8] = test system: Pasteurella multocida 60A; assay: broth-dilution microtiter MIC test; conditions: Pasteurella multocida, 60A
Method: as §1

[9] = test system: Staphylococcus aureus 19C; assay: broth-dilution microtiter MIC test; conditions: Staphylococcus aureus, 19C
Method: as §1

[10] = test system: Pasteurella hemolytica 41D; assay: broth-dilution microtiter MIC test; conditions: Pasteurella, 41D
Method: as §1

[11] = test system: Pasteurella multocida 68C; assay: broth-dilution microtiter MIC test; conditions: Pasteurella multocida, 68C
Method: as §1

[12] = test system: Pasteurella hemolytica 22C; assay: broth-dilution microtiter MIC test; conditions: Pasteurella, 22C
Method: as §1

[13] = test system: Pasteurella hemolytica 23C; assay: broth-dilution microtiter MIC test; conditions: Pasteurella, 23C
Method: as §1

[14] = test system: Staphylococcus aureus V41; assay: standard agar-dilution MIC assay; conditions: Staphylococcus aureus, V41
Method: as §1

Escherichia coli EC14 = assay: standard agar-dilution MIC assay; conditions: agar-dilution, read-out: MIC
Method: as §1

[15] = test system: Streptococcus Group D 9960; assay: standard agar-dilution MIC assay; conditions: GROUPD9960, read-out: MIC
Method: as §1

[16] = test system: Haemophilus influenzae 76; assay: standard agar-dilution MIC assay; conditions: Haemophilus influenzae, 76
Method: as §1

[17] = test system: Pseudomonas aeruginosa X239; assay: standard agar-dilution MIC assay; conditions: Pseudomonas aeruginosa, X239; agar-dilution; read-out: MIC
Method: as §1

[18] = test system: Haemophilus influenzae C.L.; assay: standard agar-dilution MIC assay; conditions: Haemophilus influenzae
Method: as §1

[19] = test system: Streptococcus Group D X66; assay: standard agar-dilution MIC assay; conditions: read-out: MIC
Method: as §1

[20] = test system: Streptococcus pyogenes C203; assay: standard agar-dilution MIC assay; conditions: Streptococcus pyogenes, C203
Method: as §1

[21] = test system: Staphylococcus aureus X400; assay: standard agar-dilution MIC assay; conditions: Staphylococcus aureus, X400
Method: as §1

[22] = test system: Klebsiella pneumoniae X68; assay: standard agar-dilution MIC assay; conditions: Klebsiella pneumoniae, X68; agar-dilution; read-out: MIC
Method: as §1

[23] = test system: Staphylococcus aureus X1.1; assay: standard agar-dilution MIC assay; conditions: Staphylococcus aureus, X1.1
Method: as §1

[24] = test system: Staphylococcus epidermidis EPI1; assay: standard agar-dilution MIC assay; conditions: Staphylococcus epidermidis, EPI1
Method: as §1

[25] = test system: Streptococcus pneumoniae Park I; assay: microbe, parasite or virus in culture; conditions: Streptococcus pneumoniae
Method: as §1

[26] = test system: Staphylococcus aureus S13E; assay: microbe, parasite or virus in culture; conditions: Staphylococcus aureus, S13E
Method: as §1

In the case of `CCC1OC(=O)CC(O)C(C)C(OC2OC(C)C(O)C(N(C)C)C2OC(C)=O)C(CC=O)CC(C)C(=O)C=CC(C)=CC1COC1OC(C)C(OC(C)=O)C(OC(=O)COc2ccccc2)C1OC` (stereo not drawn) [Compound 37, 2',4"-Di-O-acetyl-3"-O-phenoxyacetyllactenocin], the MIC [1] was > 50 µg/mL, the MIC [2] was 6.25 µg/mL (≈ 6.4 µM) and the MIC [3] was 12.5 µg/mL (≈ 12.8 µM). The MIC (Streptococcus sp. 19F) was 0.78 µg/mL (≈ 0.799 µM), the MIC (Mycoplasma synoviae 40A) was 0.78 µg/mL (≈ 0.799 µM) and the MIC [4] was 0.195 µg/mL (≈ 0.2 µM). It also gave an MIC [5] of 25 µg/mL (≈ 25.6 µM), an MIC [6] of 25 µg/mL (≈ 25.6 µM) and an MIC (Mycoplasma hyorhinis 29E) of 6.25 µg/mL (≈ 6.4 µM). For the same compound, the MIC [7] was 25 µg/mL (≈ 25.6 µM), the MIC [8] was 25 µg/mL (≈ 25.6 µM) and the MIC [9] was 1.56 µg/mL (≈ 1.6 µM). The MIC [10] was 25 µg/mL (≈ 25.6 µM), the MIC [11] was 12.5 µg/mL (≈ 12.8 µM) and the MIC [12] was 25 µg/mL (≈ 25.6 µM). For the same compound, the MIC [13] was 25 µg/mL (≈ 25.6 µM), the MIC [14] was 1 µg/mL (≈ 1.02 µM) and the MIC (Escherichia coli EC14) was > 128 µg/mL. The MIC [15] was 2 µg/mL (≈ 2.05 µM), the MIC [16] was 4 µg/mL (≈ 4.1 µM) and the MIC [17] was > 128 µg/mL. For the same compound, the MIC [18] was 16 µg/mL (≈ 16.4 µM), the MIC [19] was 1 µg/mL (≈ 1.02 µM) and the MIC [20] was 0.5 µg/mL (≈ 0.512 µM). The MIC [21] was 2 µg/mL (≈ 2.05 µM), the MIC [22] was > 128 µg/mL and the MIC [23] was 1 µg/mL (≈ 1.02 µM). It also gave an MIC [24] of 1 µg/mL (≈ 1.02 µM), an MIC ([25]; agar-dilution, read-out: MIC) of 0.12 µg/mL (≈ 0.123 µM) and an MIC [26] of 1 µg/mL (≈ 1.02 µM).

With `CCC1OC(=O)CC(O)C(C)C(OC2OC(C)C(O)C(N(C)C)C2O)C(CC=O)CC(C)C(=O)C=CC(C)=CC1COC1OC(C)C(OC(C)=O)C(OC(=O)COc2ccccc2)C1OC` (stereo not drawn) [Compound 38, 4"-O-Acetyl-3"-O-phenoxyacetyl-lactenocin] the MIC [1] was > 50 µg/mL, the MIC [2] was 25 µg/mL (≈ 26.8 µM) and the MIC [3] was 12.5 µg/mL (≈ 13.4 µM). For the same compound, the MIC (Streptococcus sp. 19F) was 0.78 µg/mL (≈ 0.835 µM), the MIC (Mycoplasma synoviae 40A) was 0.78 µg/mL (≈ 0.835 µM) and the MIC [4] was 0.39 µg/mL (≈ 0.418 µM). For the same compound, the MIC [5] was 25 µg/mL (≈ 26.8 µM), the MIC [6] was 25 µg/mL (≈ 26.8 µM) and the MIC (Mycoplasma hyorhinis 29E) was 12.5 µg/mL (≈ 13.4 µM). For the same compound, the MIC [7] was 25 µg/mL (≈ 26.8 µM), the MIC [8] was 12.5 µg/mL (≈ 13.4 µM) and the MIC [9] was 3.12 µg/mL (≈ 3.34 µM). It also gave an MIC [10] of 50 µg/mL (≈ 53.5 µM), an MIC [11] of 12.5 µg/mL (≈ 13.4 µM) and an MIC [12] of 25 µg/mL (≈ 26.8 µM). The MIC [13] was 25 µg/mL (≈ 26.8 µM), the MIC [14] was 1 µg/mL (≈ 1.07 µM) and the MIC (Escherichia coli EC14) was > 128 µg/mL. The MIC [15] was 2 µg/mL (≈ 2.14 µM), the MIC [16] was 8 µg/mL (≈ 8.56 µM) and the MIC [17] was > 128 µg/mL. It also gave an MIC [18] of 16 µg/mL (≈ 17.1 µM), an MIC [19] of 2 µg/mL (≈ 2.14 µM) and an MIC [20] of 0.5 µg/mL (≈ 0.535 µM). For the same compound, the MIC [21] was 2 µg/mL (≈ 2.14 µM), the MIC [22] was > 128 µg/mL and the MIC [23] was 1 µg/mL (≈ 1.07 µM). It also gave an MIC [24] of 1 µg/mL (≈ 1.07 µM), an MIC [25] of 0.25 µg/mL (≈ 0.268 µM) and an MIC [26] of 1 µg/mL (≈ 1.07 µM).
